Experimental data as given in patent US20220079915A1, “IMMUNOSUPPRESSIVE PHARMACEUTICAL COMPOSITION AND APPLICATION THEREOF” (Shanghai Archeus Biotech Co., Ltd., priority 2018, published 2022).

Columns and labels:
[1] = cited from earlier work; for antihypertensive effect, equivalent to % of forskolin: source [2]
[2] = tested on: myocardial contraction; conditions: cited from earlier work; for myocardial contraction activity, equivalent to % of forskolin: source [2]; for myocardial contraction activity EC50: sources [7], [8]
[3] = tested on: cAMP; conditions: source [1]; cited from earlier work
[4] = of 6-[3-(dimethylamino)propionyl]forskolin; sources [3], [4]; cited from earlier work
[5] = tested on: systolic blood pressure (SBP), diastolic blood pressure (DBP), heart rate (HR); conditions: source [3]; cited from earlier work
[6] = tested on: IL-17A; assay: IL-17A secretion of mouse spleen Naïve CD4+ T cells induced to differentiate to Th17 cells by cytokines, ELISA; assay type: cell-based
Method: 1) Pre-coated the 96-well plate with 2 μg/mL anti-mouse CD3e and incubated overnight at 4 degrees Celsius: 2) Separated fresh spleens from adult C57BL/6 female mice (8-12 weeks old), ground and filtered through a […] nylon cell strainer to obtain a single cell suspension in pre-cooled DPBS; 3) Washed the spleen cells again with DPBS, and resuspended in RoboSep™ buffer at a density of 1×10^8/mL; 4) Separated primary CD4+ T cells with mouse primary CD4+ T cell isolation kit as required by the kit; 5) Resuspended the isolated CD4+ T cells in complete medium (RPMI 1640 medium+10% inactivated FBS+1% double antibiotics) at a density of 1×10^6/mL; 6) Washed the 96-well plate pre-coated with anti-mouse CD3e twice with DPBS, added 50 μL of cytokine cocktail, the composition and final concentration of which are shown in Table 6 below, and then added 50 μL of compound solution (the final concentration of DMSO was 0.1%). Added 100 μL of cell suspension to each well to allow the final cell number per well to be 1×10^5/100 μL; [table] 7) Cultured the cells for 7 days under the above conditions. The culture conditions were 37 degrees Celsius, 5% CO2 concentration; 8) After 7 days, added 1× stimulation cocktail (eBioscience 500X) to the culture medium for 4 hours, and then collected cell culture supernatant for detection with IL-17A enzyme-linked immunoassay kit; 9) Completed the detection of supernatant IL-17A concentration with mouse IL-17 DuoSet ELISA kit; 10) Read the OD450 nm absorbance value with a microplate reader, and generated the standard curve by using the 4-parameter logistic fitting (4-PL) method. 1) Diluted the capture antibody (provided in the kit) to a working concentration in PBS without carrier protein, that is, a 96-well plate can be coated with 100 microliters per well. Sealed and incubated the plate overnight at room temperature; 2) Aspirated the coating buffer of the well plate, and eluted with 400 microliters of eluent (provided in the kit) for three times, aspirating as much liquid as possible each time; 3) Added 300 microliters of diluent (provided in the kit) to each well, and equilibrated for 1 hour at room temperature; 4) Eluted the well plate as in the above step 2) to be ready for the addition of sample; ) Added 100 microliters of sample or standard to each well containing the added diluent, and sealed and incubated the well plate for 2 hours at room temperature; 6) Eluted the well plate as in the above step 2); 7) Added 100 microliters of detector antibody (provided in the kit) to each well, and sealed and incubated the well plate for 2 hours at room temperature. 8) Eluted the well plate as in the above step 2); 9) Added 100 microliters of Streptavidin-HRP working solution (provided in the kit) to each well, and sealed and incubated the well plate in dark for 20 minutes at room temperature. 10) Eluted the well plate as in the above step 2); 11) Added 100 microliters of reaction substrate solution (provided in the kit) to each well, and incubated at room temperature for 20 minutes, protected from light: 12) Added 50 microliters of stop solution (provided in the kit) to each well, and tapped the well plate to ensure that the liquid is evenly mixed; 13) Detected the optical density value of each well at […]. The values could be corrected by deducting the values at 540 nm or 570 nm.

[7] = tested on: TNF-α; assay: LPS-induced TNF-α secretion in THP-1 cells, ELISA of culture supernatant; assay type: cell-based, human; conditions: for TNF-α treatment value, B: relative to control
Method: 1) Recoveried and expanded THP-1 cells in a T75 culture flask. The growth medium was 10 milliliters of 10% fetal bovine serun/RPMI1640 (already containing 2 mM glutamine)/1% double antibiotics in each flask. Observed the cells under an invert microscope, and, when the cells were in the logarithmic growth phase, started the following drug treatment experiments; 2) Cultured 2*10e5/mL THP-1 cells in a 96-well culture plate with 100 microliters of growth medium (10% fetal bovine serum/RPMI640/1% double antibiotics) per well, and added 100 ng/ml PMA to incubate for 24 hour; 3) Eluted the non-adherent cells once with 300 microliters of fresh growth medium of 10% fetal bovine serum/RPMI1640/1% double antibiotics; 4) Added 200 microliters of growth medium of 10% fetal bovine serum/RPMI1640/1% double antibiotics, with/without test compound, to pre-incubate the cells at 37° C. for 2 hours; 5) Then added 100 ng/mL lipopolysaccharide (LPS) and incubated at 37° C. for 4 hours: 6) Collected 50 microliters of cell culture supernatant for the detection of the levels of related cytokines by enzyme-linked immunoassay, or stored it in a refrigerator at minus 80 degrees Celsius for future detection; 1) Prepared 1× elution buffer for enzyme-linked immunoassay. Prepared it with ultrapure water: 10× elution buffer mother solution=9:1 in volume ratio for use; 2) Prepared the antibody cocktail for enzyme-linked immunoassay. Prepared it with the antibody diluent (provided by Ab221825):antibody 1:antibody 2=18:1:1 in volume ratio for use. Antibody 1 was a TNF-α capture antibody and Antibody 2 was a TNF-α detector antibody. They were all supplied by kit Ab221825; 3) Prepared a series of concentration gradient samples of TNF-α standard with ultrapure water for the plotting of reaction standard curve and determining the linear range of detection signal; 4) Added 50 microliters of cell culture supernatant/standard and 50 microliters of the above antibody cocktail to a 96-well plate used for enzymatic reaction, sealed it with a film, placed it on a horizontal shaker, and incubated at 400 rpm for 1 hour at room temperature to allow the antibody-antigen complex was fully bound and coupled at the bottom of the well plate; 5) Discarded the supernatant, eluted with 350 microliters of 1× elution buffer/well for 3 times. In the last elution, put the well plate upside down on an absorbent paper and sucked and washed it thoroughly; 6) Added 100 microliters of TMB substrate solution (supplied by Ab221825) to each well, placed them on a horizontal shaker and incubated in the dark at room temperature for 5 minutes at a speed of 400 rpm; 7) Added 100 microliters of reaction stop solution (provided by Ab221825), placed on a horizontal shaker and mix at 400 rpm for 1 minute; 8) Detected the absorbance at 450 nm with a microplate reader.

[8] = tested on: guinea pig myocardial contraction; conditions: source [5]; cited from earlier work
[9] = target: adenylate cyclase in rat cerebral cortex; conditions: source [8]; read-out: activation of adenylate cyclase in rat cerebral cortex EC50; cited from earlier work
[10] = tested on: psoriasis; conditions: 4 patients with psoriasis; PCT/US84/00291; cited from earlier work
[11] = cited from earlier work

For C=C[C@@]1(C)CC(=O)C2(O)[C@@]3(C)C(O)CCC(C)(C)C3[C@H](OC(=O)CCCN)C(OC(C)=O)[C@@]2(C)O1 (stereo partly shown) [6-(4-aminobutyryl)forskolin], the antihypertensive effect ([1]; source [1]) is listed as 0.7, the myocardial contraction activity ([2]; source [1]) is listed as 0.9 dp/dt and the cAMP activation [3] is listed as 214.9%.
In the case of C=C[C@@]1(C)CC(=O)C2(O)[C@@]3(C)[C@@H](O)CCC(C)(C)[C@@H]3[C@H](OC(=O)CCNC)[C@H](OC(C)=O)[C@@]2(C)C1 (stereo partly shown) [6-[3-(methylamino)propionyl]forskolin], the metabolite status [4] is given as “in vivo active metabolite” and the “beagle dog's systolic blood pressure (SBP), diastolic blood pressure (DBP), heart rate (HR) and other effects” value [5] is given as “equivalent to 6-[3- (dimethylamino)- propionyl]forskolin”.
For C=C[C@@]1(C)CC(=O)C2(O)[C@@]3(C)C(O)CCC(C)(C)C3[C@H](OC(=O)CCN(C)C)C(OC(C)=O)[C@@]2(C)O1 (stereo partly shown) [6-[3-(dimethylamino)propionyl]forskolin], the “antihypertensive effect, equivalent to % of forskolin” value [1] is listed as 80 % of forskolin and the “myocardial contraction activity, equivalent to % of forskolin” value [2] is listed as 120 % of forskolin.
For C=C[C@@]1(C)CC(=O)C2(O)[C@@]3(C)C(O)CCC(C)(C)C3[C@H](OC(=O)CCCN(C)C)C(OC(C)=O)[C@@]2(C)O1 (stereo partly shown) [6-[4-(dimethylamino)butyryl]forskolin], the “antihypertensive effect, equivalent to % of forskolin” value [1] is given as 90 % of forskolin and the “myocardial contraction activity, equivalent to % of forskolin” value [2] is given as 100 % of forskolin.
For C=C[C@@]1(C)CC(=O)C2(O)[C@@]3(C)[C@@H](O)CCC(C)(C)[C@@H]3[C@H](OC(=O)CCN)[C@H](OC(C)=O)[C@@]2(C)C1 (stereo partly shown) [6-[3-aminopropionyl]forskolin], the metabolite status [4] is given as “in vivo active metabolite of 6-[3- (dimethylamino)- propionyl]forskolin”.
In the case of CCCCC[C@H](O)/C=C/[C@H]1[C@H](O)CC(=O)[C@@H]1C/C=C\CCCC(=O)O [PGE2, prostaglandin E2, reference compound], the “IL-17A, % of the basic level” value ([6]; 3 μM PGE2 alone, FIG. 10) is reported as 17%, the “IL-17A treatment value, B” value ([6]; Table 7, relative to control, 3 μM PGE2) is reported as 17% and the “effect on secretion and expression of TNF-α” value ([7]; 10 μM PGE2 alone, FIG. 4) is reported as “inhibited the secretion and expression of TNF-α to a certain extent”. For the same compound, the “TNF-α treatment value, B” value ([7]; Table 3, 10 μM PGE2) was 46%.
For C=CC1(C)CC(=O)C2(O)C(C)(O1)C(O)C(OC(=O)CN1CCCCC1)C1C(C)(C)CCC(O)C12C (stereo not shown) [6-[(piperidino)acetyl]-7-desacetyl forskolin], the “guinea pig myocardial contraction activity EC50” value [8] is listed as “guinea pig myocardial contraction activity EC50: 1.8 μg/mL”.
In the case of C[C@]12CCC(=O)C=C1CC[C@@H]1[C@@H]2[C@@H](O)C[C@@]2(C)[C@H]1CC[C@]2(O)C(=O)CO [hydrocortisone, reference compound], the “reduction of the IL-17A level, % of the basic level” value ([6]; 3 μM hydrocortisone alone, FIG. 12) is reported as 38%, the “IL17-A treatment value, B” value ([6]; Table 8, relative to control, 3 μM hydrocortisone) is reported as 62% and the “effect on TNF-α” value ([7]; 30 μM hydrocortisone alone, pre-incubated 2 hours before LPS, FIG. 6) is reported as “further stimulated the increase of inflammatory factor TNF-α”. For the same compound, the “TNF-α treatment value, B” value ([7]; Table 4, 30 μM hydrocortisone) was 200%.
For C=C[C@@]1(C)CC(=O)[C@]2(O)C3(C)C(C(O)C(OC(=O)COC=O)[C@@]2(C)O1)C(C)(C)CC[C@@H]3O (stereo partly shown) [7-(2-formyloxy)forskolin], the “myocardial contraction activity EC50” value [2] is given as “myocardial contraction activity EC50 = 0.002 μg/mL”.
In the case of C=C[C@@]1(C)CC(=O)[C@]2(O)[C@@]3(C)[C@@H](O)CCC(C)(C)[C@@H]3[C@H](O)[C@H](OC(C)=O)[C@@]2(C)O1 [forskolin], the EC50 [9] is listed as 8 µM, the “drug activity in reducing TNF-α” value ([7]; FIG. 2, compared with 6-[3-(dimethylamino)propionyl]forskolin hydrochloride) is listed as “slightly lower than the aforementioned compound” and the “effect on pathological symptoms of psoriasis” value [10] is listed as “relieved the pathological symptoms”. For the same compound, the “myocardial contraction activity EC50” value [2] was 0.02 µg/mL and the water solubility [11] was “poor”.
